Experiments:
human SMS2 = biological target: T1, human SMS2 (Homo sapiens, UniProt Q8NHU3); test: purified SMS enzyme inhibitory assay in vitro; assay type: biochemical; details: for inhibition at 1 µM: read-out: SMS2 Inhibition @ 1 μmol/L (%); for Selectivity ratio: IC50, SMS1/IC50, SMS2; for LLE: pIC50, SMS2 – ClogP
T1 sequence (Q8NHU3 1-365): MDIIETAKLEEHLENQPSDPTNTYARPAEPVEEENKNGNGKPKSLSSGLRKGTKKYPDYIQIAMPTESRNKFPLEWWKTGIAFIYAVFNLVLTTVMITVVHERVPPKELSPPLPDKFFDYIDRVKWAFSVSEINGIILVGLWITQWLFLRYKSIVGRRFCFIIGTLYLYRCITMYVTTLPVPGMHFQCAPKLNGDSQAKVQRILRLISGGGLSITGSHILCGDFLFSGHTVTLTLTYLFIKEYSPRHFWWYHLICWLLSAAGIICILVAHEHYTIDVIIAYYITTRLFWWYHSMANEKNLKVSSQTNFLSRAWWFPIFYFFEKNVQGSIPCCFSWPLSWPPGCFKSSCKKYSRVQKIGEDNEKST

human SMS1 = biological target: T2, human SMS1 (Homo sapiens, UniProt Q86VZ5); test: purified SMS enzyme inhibitory assay in vitro; assay type: biochemical; details: for inhibition at 100 µM: read-out: SMS1 Inhibition @ 100 μmol/L (%)
T2 sequence (Q86VZ5 1-413): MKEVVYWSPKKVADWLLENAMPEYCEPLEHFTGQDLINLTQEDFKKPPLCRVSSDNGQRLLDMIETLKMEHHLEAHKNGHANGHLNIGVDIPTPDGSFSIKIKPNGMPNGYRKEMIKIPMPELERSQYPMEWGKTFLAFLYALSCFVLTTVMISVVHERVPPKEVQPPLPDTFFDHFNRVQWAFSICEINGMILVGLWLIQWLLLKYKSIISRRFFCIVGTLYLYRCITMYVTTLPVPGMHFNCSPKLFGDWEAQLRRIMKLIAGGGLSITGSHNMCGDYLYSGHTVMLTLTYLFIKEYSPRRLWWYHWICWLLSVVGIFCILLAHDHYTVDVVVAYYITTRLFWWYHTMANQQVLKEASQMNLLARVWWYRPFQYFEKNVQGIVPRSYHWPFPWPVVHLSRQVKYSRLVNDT

Row | SMILES | inhibition at 1 µM (human SMS2) | inhibition at 100 µM (human SMS1) | IC50 (human SMS2) | Selectivity ratio (human SMS2) | LLE (human SMS2) | IC50 (human SMS1)
1 | CN(C(=O)c1sccc1OCc1ccccc1)c1cccnc1 [compound 6] | 28% | 20% | – | – | – | –
2 | O=C(Nc1cnccc1Cl)c1sccc1OCc1ccccc1 [7b] | 7% | -39% | – | – | – | –
3 | O=C(Nc1cccnn1)c1sccc1OCc1ccccc1 [7i] | 25% | 22% | – | – | – | –
4 | Cc1ccc(NC(=O)c2sccc2OCc2ccccc2)cn1 [7h] | -3% | 22% | – | – | – | –
5 | Cc1nc(OCc2ccccc2)c(C(=O)Nc2cccnc2)s1 [5d] | – | 10% | – | – | – | –
6 | O=C(Nc1cncc(F)c1)c1sccc1OCc1ccccc1 [7c] | 56% | 52% | – | – | – | –
7 | Cc1ccncc1NC(=O)c1sccc1OCc1ccccc1 [7f] | -4% | -17% | – | – | – | –
8 | O=C(Nc1ccccc1)c1sccc1OCc1ccccc1 [7k] | 3% | – | – | – | – | –
9 | O=C(Nc1cccnc1)c1ncccc1OCc1ccccc1 [5b] | – | -18% | – | – | – | –
10 | Cc1ncccc1NC(=O)c1sccc1OCc1ccccc1 [7e] | 3% | -20% | – | – | – | –
11 | O=C(Nc1cccnc1)c1sccc1OCc1ccccc1 [5a] | 66% | 20% | 400 nM | 547 | 3.33 | 219000 nM
12 | Cc1cncc(NC(=O)c2sccc2OCc2ccccc2)c1 [7g] | 12% | 28% | – | – | – | –
13 | Cc1cc(OCc2ccccc2)c(C(=O)Nc2cccnc2)s1 [5c] | 34% | -14% | – | – | – | –
14 | O=C(Nc1cccnc1)c1sccc1OS(=O)(=O)c1ccccc1 [compound 10] | -3% | – | – | – | – | –
15 | O=C(Nc1cccnc1)c1sc([N+](=O)[O-])cc1OCc1ccccc1 [5e] | – | -4% | – | – | – | –

Now from value to molecule:

Row | inhibition at 1 µM (human SMS2) | inhibition at 100 µM (human SMS1) | IC50 (human SMS2) | Selectivity ratio (human SMS2) | LLE (human SMS2) | IC50 (human SMS1) | SMILES
16 | 86% | 39% | – | – | – | – | O=C(Nc1cccnc1)c1sccc1OCc1cccc2ccccc12 [9a]
17 | 92% | 87% | 31 nM | 409 | 1.39 | 13000 nM | CCCCCCCCCCOc1ccccc1COc1ccsc1C(=O)Nc1cccnc1 [14n]
18 | 91% | 85% | 111 nM | 70 | 1.01 | 8000 nM | CCCCCCCCOc1ccc(Cl)cc1COc1ccsc1C(=O)Nc1cccnc1 [14r]
19 | 82% | 33% | 70 nM | 2295 | 4.04 | 160000 nM | COc1ccccc1COc1ccsc1C(=O)Nc1cccnc1 [14e]
20 | 98% | 92% | 15 nM | 649 | 1.83 | 10000 nM | CCCCCCCCOc1c(Cl)cccc1COc1ccsc1C(=O)Nc1cccnc1 [14q]
21 | -11% | 67% | – | – | – | – | CCCCCCCCOc1ccsc1C(=O)Nc1cccnc1 [9e]
22 | 91% | 90% | 29 nM | 459 | 2.37 | 13000 nM | CCCCCCCOc1ccccc1COc1ccsc1C(=O)Nc1cccnc1 [14k]
23 | 78% | 74% | 103 nM | 477 | 3.18 | 49000 nM | CCCOc1ccccc1COc1ccsc1C(=O)Nc1cccnc1 [14g]
24 | 93% | 81% | 34 nM | 540 | 0.64 | 18000 nM | CCCCCCCCCCCCOc1ccccc1COc1ccsc1C(=O)Nc1cccnc1 [14p]
25 | 64% | 56% | 307 nM | – | 2.90 | – | O=C(Nc1cccnc1)c1sccc1OCc1ccccc1Cl [14a]
26 | 36% | 42% | – | – | – | – | O=C(Nc1cccnc1)c1sccc1OCc1ccc2ccccc2c1 [9b]

Source: PMC11873635 (Acta Pharmaceutica Sinica. B, 2024)
